The text below walks through data of patent US12144808B2, “Compositions and methods” (INTRA-CELLULAR THERAPIES, INC., priority 2018, dated 2024).

SMILES strings stand for the structures. Bounds are passed on as bounds.

Data set [1] has as its target H1 histaminergic receptors (Homo sapiens, UniProt P35367). The note with it: cited from earlier work.
The nature of data set [2]: Example 3: pharmacokinetics of SC and IV dosing in monkeys. The format is in vivo. The following applies: cynomolgus monkey, 0.5 mg/kg, plasma; for AUC: read-out: AUC, Parent Compound; for Cmax: read-out: Cmax, Parent Compound; for Tmax: read-out: Tmax, Parent Compound. On the procedure: Six Cynomolgus monkeys are divided into two groups for IV and SC dosing with the Compound of Formula I. The animals are dosed in a fasting state. Blood samples are collected pre-dose, and at 5 minutes, 15 minutes, 1, 2, 4, 6, 8, 24, 36 and 48 hours post-dose. All blood samples are processed to plasma and later analyzed by liquid chromatography-tandem mass spectrometry. […] PK parameters are calculated using PK Solutions 2.0 software (Summit Research Services, Colorado, US).

Data set [3] in a line: Example 2: pharmacokinetics of oral dosing in dogs. The data set is classed as in vivo. The following applies: both sexes, beagle, dog, plasma, oral capsules, tosylate salt; for AUC: 0-24 hours. As to the method: For control, the dogs are administered empty capsules. For the Compound of Formula I, the dogs are administered normal-release oral capsules. Blood samples are obtained at 0.25 hours, 0.5 hours, 1 hour, 4 hours, 8 hour and 24 hours. […] Cmax, Tmax and area-under-the-curve (AUC, 0-24 hours) are calculated using Phoenix WinNonlin software.

Data set [4] addresses T1, 5-HT2C receptors (Homo sapiens, UniProt P28335).
T1 sequence (P28335 33-458): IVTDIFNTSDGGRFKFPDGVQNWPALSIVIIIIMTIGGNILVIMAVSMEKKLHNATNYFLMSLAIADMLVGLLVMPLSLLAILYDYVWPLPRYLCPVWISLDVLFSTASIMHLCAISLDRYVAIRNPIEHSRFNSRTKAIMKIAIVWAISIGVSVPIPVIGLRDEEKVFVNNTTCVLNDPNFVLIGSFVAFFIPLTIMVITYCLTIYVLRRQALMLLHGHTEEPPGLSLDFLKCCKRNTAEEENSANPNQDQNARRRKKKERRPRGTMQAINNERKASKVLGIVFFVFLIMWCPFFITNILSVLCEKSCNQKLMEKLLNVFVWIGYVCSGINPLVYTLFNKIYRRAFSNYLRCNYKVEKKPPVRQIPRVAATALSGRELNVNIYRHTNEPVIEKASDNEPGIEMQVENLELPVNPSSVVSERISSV
The following applies: cited from earlier work.

The test system of data set [5] is muscarinic receptors. The following applies: cited from earlier work.
The nature of data set [6]: Example 1A: pharmacokinetics of subcutaneous (SC) and sublingual (SL) dosing in dogs. The note with it: male, beagle, dog, 1 mg/kg, tosylate salt, plasma; for AUC: 0-24 hours. The data set is classed as in vivo. As to the method: SC Administration: Six male beagle dogs between 2 and 5 years of age are randomized in two groups of three dogs each. […] Dogs in group 2 are administered the Compound of Formula II at a dose of 1 mg/kg (free base equivalent) in a 0.5% methylcellulose/distilled water vehicle. Administration is subcutaneous in the intrascapular region via a 22 or 23 gauge needle. Whole blood samples are collected via the dog's cephalic vein pre-dose, and at post-dose time-points 5, 15 and 30 minutes, 1, 2, 4, 6, 8 and 24 hours. Following a minimum 7-day washout period, the dogs are transferred to the sublingual portion of the study.
Dogs in group 2 are administered the Compound of Formula II at a dose of 1 mg/kg (free base equivalent) in a 0.5% methylcellulose/distilled water vehicle. The animals are anesthetized prior to administration of the dose using propofol (6 mg/kg) and anesthesia is maintained for 30 minutes using 3-4.5% isoflurane. Administration is sublingual and the dosage is applied for 30 minutes, then wiped off using unwoven gauze. Whole blood samples are collected via the dog's cephalic vein pre-dose, and at post-dose time-points 5, 15 and 30 minutes, 1, 2, 4, 6, 8, 24, 36 and 48 hours.
All blood samples are processed to plasma and analyzed for drug concentrations using liquid chromatography-tandem mass spectrometry (LC-MS/MS). Area under the curve (AUC) of parent and metabolites based on plasma versus time data are calculated using Prism 5.04 software (GraphPad Software, Inc.).

Data set [7] in a line: Example 1B: SC and SL pharmacokinetics in dogs with metabolite analysis. The format is in vivo. The note with it: male, beagle, dog, 1 mg/kg, plasma, analyte parent; for AUC: 0-24 hours. As to the method:
SC Administration: Six male beagle dogs between 2 and 5 years of age are randomized in two groups of three dogs each. […] Administration is subcutaneous in the intrascapular region via a 22 or 23 gauge needle. […] Following a minimum 7-day washout period, the dogs are transferred to the sublingual portion of the study. SL Administration: […] The animals are anesthetized prior to administration of the dose using propofol (6 mg/kg) and anesthesia is maintained for 30 minutes using 3-4.5% isoflurane. Administration is sublingual and the dosage is applied for 30 minutes, then wiped off using unwoven gauze. […] All blood samples are processed to plasma and analyzed for drug concentrations using liquid chromatography-tandem mass spectrometry (LC-MS/MS). Area under the curve (AUC) of parent and metabolites based on plasma versus time data are calculated using Prism 5.04 software (GraphPad Software, Inc.). A second study is performed substantially as described for Example 1A, except that plasma samples are analyzed for the parent (administered) compounds, as well as for the major known metabolites. […] The results are summarized in Table 1B below (AUC is shown for 0-24 hours): […]

Data set [8] in a line: oral bioavailability. The note with it: in vivo.

H1 histaminergic receptors, sequence (P35367 whole entry): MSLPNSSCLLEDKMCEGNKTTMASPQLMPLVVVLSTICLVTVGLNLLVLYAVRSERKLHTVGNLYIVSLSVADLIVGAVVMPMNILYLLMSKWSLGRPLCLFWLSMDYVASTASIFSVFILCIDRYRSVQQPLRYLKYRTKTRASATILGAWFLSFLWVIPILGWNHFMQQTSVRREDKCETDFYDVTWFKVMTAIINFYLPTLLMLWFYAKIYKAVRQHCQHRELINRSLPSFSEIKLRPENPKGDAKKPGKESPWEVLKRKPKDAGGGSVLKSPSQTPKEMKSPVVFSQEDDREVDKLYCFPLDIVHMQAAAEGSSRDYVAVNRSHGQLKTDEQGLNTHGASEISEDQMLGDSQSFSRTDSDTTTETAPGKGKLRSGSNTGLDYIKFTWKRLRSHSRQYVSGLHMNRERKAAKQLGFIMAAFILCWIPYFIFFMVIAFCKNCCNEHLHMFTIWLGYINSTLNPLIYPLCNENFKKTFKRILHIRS

`CN1CCN2c3c(cccc31)[C@@H]1CN(CCCC(=O)c3ccc(F)cc3)CC[C@@H]12` [Compound of Formula I, 1-(4-fluoro-phenyl)-4-((6bR,10aS)-3-methyl-2,3,6b,9,10,10a-hexahydro-1H,7H-pyrido[3′,4′:4,5]pyrrolo[1,2,3-de]quinoxalin-8-yl)-butan-1-one]: in data set [1], the “binding to H1 histaminergic receptors” value is listed as “negligible binding”. For the same molecule, the AUC in data set [2] (Cynomolgus, SC) amounted to 220 ng·h/mL; in data set [2] (IV) it was 297 ng·h/mL; in data set [3] (2.5 mg/kg), 40 ng·h/mL; in data set [3] (5 mg/kg) it was 52.5 ng·h/mL; in data set [3] (10 mg/kg), 142 ng·h/mL; in data set [3] (15 mg/kg) it was 248 ng·h/mL. For the same molecule, the AUC amounted to 813 ng·h/mL in data set [6] (SC), 734 ng·h/mL in data set [6] (SL), 560 ng·h/mL in data set [7] (SC) and 507 ng·h/mL in data set [7] (SL). Further, the Cmax in data set [2] (Cynomolgus, SC) was 23 ng/mL; in data set [2] (IV), 94 ng/mL; in data set [3] (2.5 mg/kg), 5.51 ng/mL; in data set [3] (5 mg/kg), 7.72 ng/mL; in data set [3] (10 mg/kg), 29 ng/mL; in data set [3] (15 mg/kg), 44.5 ng/mL. Moreover, the Cmax in data set [6] (SC) is 110 ng/mL; in data set [6] (SL) it was 259 ng/mL; in data set [7] (SC) it was 76 ng/mL; in data set [7] (SL) it was 179 ng/mL. Moreover, the Tmax in data set [2] (Cynomolgus, SC) was determined as 2 h; in data set [2] (IV), 0.083 h; in data set [3] (2.5 mg/kg), 0.469 h; in data set [3] (5 mg/kg), 0.875 h; in data set [3] (10 mg/kg), 0.813 h; in data set [3] (15 mg/kg) it was 1.63 h. Moreover, the Tmax in data set [6] (SC), in data set [6] (SL), in data set [7] (SC) and in data set [7] (SL) was 1 h in each case. Moreover, the bioavailability was around 74% in data set [2] (Cynomolgus, subcutaneous, SC administration, read-out: bioavailability (comparison of IV to SC pharmacokinetics)) and at most 5% in data set [8]. Also, in data set [4], the “binding to 5-HT2C receptors” value is “negligible binding”. In data set [5], the “binding to muscarinic receptors” value was “negligible binding”.
`[2H]C1([2H])CN2c3c(cccc3N1C)[C@@H]1CN(CCCC(=O)c3ccc(F)cc3)CC[C@@H]12` [Compound of Formula II, 1-(4-fluoro-phenyl)-4-((6bR,10aS)-2,2-d2-3-methyl-2,3,6b,9,10,10a-hexahydro-1H,7H-pyrido[3′,4′:4,5]pyrrolo[1,2,3-de]quinoxalin-8-yl)-butan-1-one]: the Cmax in data set [6] (SC) came out at 79 ng/mL; in data set [6] (SL), 562 ng/mL; in data set [7] (SC) it was 79 ng/mL; in data set [7] (SL) it was 562 ng/mL. The Tmax in data set [6] (SC), in data set [6] (SL), in data set [7] (SC) and in data set [7] (SL) was 1 h each time. Moreover, the exposure (AUC) in data set [6] (SC) was 785 ng·h/mL; in data set [6] (SL), 1260 ng·h/mL; in data set [7] (SC) it was 785 ng·h/mL; in data set [7] (SL), 1260 ng·h/mL.
